Experimental data taken from US5441947A, “Methods of inhibiting vascular restenosis” (Eli Lilly and Company, priority 1993, dated 1995).
Where “and” joins values, the source holds several entries; their conditions need not be identical. Equal entries are not always repeated.

B1: PDGF: PDGF-BB at 10 ng/ml as an inducer, or chemoattractant (protein, UniProt P01127 82-190, looked up)
Platelet-derived growth …: SLGSLTIAEPAMIAECKTRTEVFEISRRLIDRTNANFLVWPPCVEVQRCSGCCNNRNVQCRPTQVQLRPVQVRKIEIVRKKPIFKKATVTLEDHLACKCETVAAARPVT

Test system: smooth muscle cell chemotaxis
Test: smooth muscle cell chemotaxis (96 well chemotaxis chamber, PDGF-BB as inducer)
Format: cell-based
Conditions: four hours; for Degree of Cell Migration: absorbance; for IC50: 4 h, PDGF-BB 10 ng/ml as inducer, 37° C., read-out: half maximal inhibiting concentrations (IC50) to inhibit smooth muscle cell chemotaxis
Description: Compounds of the invention were tested for impact on smooth muscle cell chemotaxis using a model AB96 Neuro Probe® 96 well chemotaxis chaser. […] This chamber is available from Neuro Probe, Inc., P.O. Box 400, Cabin John, Md.
The chamber consists of a top plate, a bottom plate, a gasket and a polyvinyl pyrrolidone-free polycarbonate filter. […] The 8 μm pore filter is soaked in 0.5N acetic acid overnight and coated with collagen at 100 μg/ml in 0.1N acetic acid for 2 days. The filter is then dried in a hood. The filter is then installed on the bottom plate, followed by the gasket. The top plate is then placed on the gasket, forming the top wells. In the top wells, smooth muscle cells are placed with the compounds to be tested at specified concentrations in around 225 μl volume. The smooth muscle cells are plated at a density of 0.5×10^6 cells/mi. The chamber is incubated at 37° C., 5% CO2 for four hours, and at the end of this time the upper well-cells are scraped off. The lower well cells are fixed, stained, and the absorbance is read.

[1] = 0.1 μm compound, PDGF-BB 10 ng/ml
[2] = 10 μm compound, PDGF-BB 10 ng/ml
[3] = 0.03 μM compound, PDGF-BB 10 ng/ml
[4] = 0.3 μm compound, PDGF-BB 10 ng/ml

| Molecule | IC50 [nM] | Degree of Cell Migration [1] | other results |
| --- | --- | --- | --- |
| COc1cc2c(c(OC)c1OC)-c1ccc(OC)c(=O)cc1[C@@H](NC(C)=O)CC2 [Colchicine, reference compound] | – | – | Degree of Cell Migration (1 μm compound, PDGF-BB 10 ng/ml): 0.000 |
| COC[C@H]1OC(=O)c2coc3c2[C@@]1(C)C1=CC[C@]2(C)C(=O)CC[C@H]2C1C3=O (stereo partly drawn) [II, Δ9,11-dehydrodesacetoxywortmannin] | 200 | – | – |
| COCC1OC(=O)c2coc3c2C1(C)C1=C(C3=O)C2CCC(O)C2(C)CC1OC(C)=O (stereo not drawn) [IIIA, 17α-Dihydrowortmannin] | 20 | -0.010 | Degree of Cell Migration (0.01 μm compound, PDGF-BB 10 ng/ml): 0.033 |
| Cc1c2c(c(O)c3occ(C(=O)O)c13)[C@@H]1CCC(=O)[C@@]1(C)C=C2 [IVa, opened A-ring acid of wortmannin] | > 10000 | – | Degree of Cell Migration [2]: 0.04 |
| COC(=O)c1coc2c(O)c3c(c(C)c12)C=C[C@]1(C)C(=O)CC[C@@H]31 [IVb, opened A-ring methyl ester of wortmannin] | 10000 | – | Degree of Cell Migration [2]: 0.026 |
| COCC1OC(=O)c2coc3c2C1(C)C1=C(C3=O)C2CCC(=O)C2(C)CC1OC(C)=O (stereo not drawn) [Ia, wortmannin] | 30 | 0.006 | Degree of Cell Migration [3]: 0.020; Degree of Cell Migration [4]: -0.001 |
| COC[C@H]1OC(=O)c2coc3c2[C@@]1(C)C1=C(C3=O)[C@@H]2CCC(=O)[C@@]2(C)CC1 [Ib, 11-desacetoxywortmannin] | 200 | 0.040 and 0.028 | Degree of Cell Migration [3]: 0.044 and 0.036; Degree of Cell Migration [4]: 0.015 |
| B1 | – | – | Degree of Cell Migration (PDGF 10 ng/ml alone (inducer control)): 0.046 |
